Results reported in ChEMBL document CHEMBL1201862, “PubChem BioAssay data set” (2004).
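A five-concentration, 48-hour dose response in 96-well plates underlies each endpoint, interpolated linearly between surrounding concentrations. Here, GI50 denotes the concentration required for 50% inhibition of growth.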 Activity calls are given as the source filed them. No stated cut-off is given here; in the data, active = GI50 up to about 1.1 µM and inactive = higher.

Key:
Assay in all cases: NCI-60 cell line screen, 48 h
CAKI-1 = test system: CAKI-1
NCI-H460 = test system: NCI-H460
HOP-62 = test system: HOP-62
K562 = test system: K562
SF-539 = test system: SF-539
HL-60 = test system: HL-60
SNB-19 = test system: SNB-19
HT-29 = test system: HT-29
786-0 = test system: 786-0
SN12C = test system: SN12C
SR = test system: SR
KM12 = test system: KM12
NCI-H226 = test system: NCI-H226
HCT-116 = test system: HCT-116
UO-31 = test system: UO-31
MOLT-4 = test system: MOLT-4
SK-OV-3 = test system: SK-OV-3
OVCAR-3 = test system: OVCAR-3
U-251 = test system: U-251
NCI-H522 = test system: NCI-H522

Measured: GI50

CC(C)CC(NC(=O)C(O)C(N)Cc1ccccc1)C(=O)O (configuration not stated)
inactive: CAKI-1 > 100 µM | NCI-H460 > 100 µM | HOP-62 > 100 µM | K562 > 100 µM | SF-539 > 100 µM | HL-60 > 100 µM | SNB-19 > 100 µM | HT-29 > 100 µM | 786-0 > 100 µM | SN12C > 100 µM | SR > 100 µM | KM12 > 100 µM | NCI-H226 > 100 µM | HCT-116 > 100 µM | UO-31 56.4 µM | MOLT-4 > 100 µM | SK-OV-3 > 100 µM | OVCAR-3 > 100 µM | U-251 > 100 µM

COC1CCC(OS(C)(=O)=O)CO1 (configuration not stated)
inactive: NCI-H522 > 100 µM | NCI-H460 > 100 µM | HOP-62 > 100 µM | K562 69 µM | SF-539 > 100 µM | HL-60 35 µM | SNB-19 > 100 µM | HT-29 > 100 µM | SR 24.7 µM | KM12 > 100 µM | HCT-116 > 100 µM | UO-31 > 100 µM | MOLT-4 20.6 µM | SK-OV-3 > 100 µM | OVCAR-3 > 100 µM | U-251 > 100 µM

CCSc1ncnc2c(C3OC(CO)C(O)C3O)nsc12 (configuration not stated)
inactive: CAKI-1 > 100 µM | HOP-62 > 100 µM | K562 > 100 µM | SF-539 > 100 µM | HL-60 > 100 µM | HT-29 > 100 µM | SN12C > 100 µM | SR > 100 µM | NCI-H226 > 100 µM | HCT-116 > 100 µM | MOLT-4 > 100 µM | SK-OV-3 > 100 µM | OVCAR-3 > 100 µM | U-251 > 100 µM

Cc1cc(NC2=NCCO2)c2c(c1C)CCCC2
active: SF-539 0.0536 µM
inactive: NCI-H460 11.7 µM | HOP-62 13.3 µM | HL-60 10.6 µM | SNB-19 11.2 µM | HT-29 13.9 µM | 786-0 17.2 µM | SN12C 22.2 µM | SR 18.5 µM | KM12 13.2 µM | NCI-H226 1.27 µM | HCT-116 15.2 µM | UO-31 1.91 µM | MOLT-4 17.4 µM | SK-OV-3 20.4 µM | U-251 18.5 µM

CN1C(=O)NC2(O)c3ccccc3C(=O)C12O (configuration not stated)
inactive: CAKI-1 > 100 µM | NCI-H522 > 100 µM | NCI-H460 > 100 µM | K562 > 100 µM | HL-60 > 100 µM | SNB-19 > 100 µM | HT-29 > 100 µM | 786-0 > 100 µM | SR > 100 µM | KM12 > 100 µM | HCT-116 > 100 µM | UO-31 > 100 µM | MOLT-4 > 100 µM | SK-OV-3 > 100 µM | OVCAR-3 > 100 µM | U-251 > 100 µM

O=C(O)Cc1cccc2c(=O)c3cccc([N+](=O)[O-])c3[nH]c12
inactive: CAKI-1 > 100 µM | NCI-H522 63.2 µM | NCI-H460 > 100 µM | HOP-62 31.4 µM | K562 > 100 µM | SF-539 29.7 µM | HL-60 > 100 µM | SNB-19 43.3 µM | HT-29 > 100 µM | 786-0 > 100 µM | SN12C 99.1 µM | SR 21.4 µM | KM12 85.1 µM | HCT-116 > 100 µM | UO-31 > 100 µM | MOLT-4 > 100 µM | SK-OV-3 > 100 µM | OVCAR-3 99.8 µM | U-251 38.9 µM

CCN(CC)CC(C)(C)C(=O)/C=C/c1ccc(C)cc1
inactive: CAKI-1 12.6 µM | NCI-H522 3.03 µM | NCI-H460 6.08 µM | HOP-62 18.5 µM | K562 3.03 µM | SF-539 13.3 µM | SNB-19 11.8 µM | HT-29 3.86 µM | 786-0 10.7 µM | SN12C 7.64 µM | SR 3.61 µM | KM12 5.87 µM | HCT-116 4.3 µM | UO-31 10.5 µM | MOLT-4 3.39 µM | SK-OV-3 22.6 µM | OVCAR-3 9.14 µM | U-251 15.3 µM

CCN(CC)C(=S)N/N=C(\C)c1cccc(C)n1
active: CAKI-1 0.31 µM | NCI-H522 0.0276 µM | HOP-62 0.102 µM | K562 < 0.01 µM | SF-539 0.239 µM | HL-60 < 0.01 µM | SNB-19 0.571 µM | HT-29 < 0.01 µM | SN12C 0.292 µM | SR < 0.0182 µM | KM12 0.201 µM | HCT-116 < 0.01 µM | UO-31 0.133 µM | MOLT-4 < 0.01 µM | OVCAR-3 < 0.01 µM | U-251 < 0.0431 µM
inactive: SK-OV-3 1.57 µM

C=C[C@H]1CN2CCc3c([nH]c4c([C@@H]5CCCN5C)c(O)ccc34)[C@@H]2C[C@@H]1C[C@H]1c2[nH]c3ccccc3c2CCN1C
inactive: CAKI-1 1.61 µM | NCI-H460 1.49 µM | HOP-62 1.31 µM | SF-539 1.57 µM | SNB-19 1.3 µM | HT-29 1.4 µM | SN12C 1.54 µM | KM12 1.41 µM | NCI-H226 1.67 µM | SK-OV-3 1.62 µM | OVCAR-3 1.36 µM | U-251 1.49 µM
active: K562 0.255 µM | HL-60 0.409 µM | 786-0 0.437 µM | SR 0.253 µM | HCT-116 0.239 µM | UO-31 1.08 µM | MOLT-4 0.316 µM

Cn1cc(C(=O)c2nccc3c2cnc2ccccc23)ccc1=O
inactive: CAKI-1 13.2 µM | NCI-H460 26.5 µM | HOP-62 25.9 µM | K562 > 100 µM | SF-539 > 100 µM | HL-60 > 100 µM | SNB-19 > 100 µM | HT-29 > 100 µM | 786-0 > 100 µM | SN12C 59.3 µM | SR 8.17 µM | KM12 > 100 µM | NCI-H226 > 100 µM | HCT-116 31.9 µM | UO-31 32.1 µM | MOLT-4 > 100 µM | SK-OV-3 > 100 µM | OVCAR-3 > 100 µM | U-251 > 100 µM

Cn1cnc([N+](=O)[O-])c1Sc1nc2cc([N+](=O)[O-])ccc2[nH]1
inactive: CAKI-1 12.6 µM | NCI-H460 36.1 µM | HOP-62 > 100 µM | K562 24.8 µM | SF-539 19.1 µM | HL-60 14 µM | SNB-19 42.3 µM | HT-29 36.4 µM | 786-0 42.4 µM | SN12C > 10 µM | SR 9.29 µM | KM12 34.9 µM | NCI-H226 40.2 µM | HCT-116 23.4 µM | UO-31 19.1 µM | MOLT-4 14.8 µM | SK-OV-3 22 µM | OVCAR-3 37.9 µM | U-251 27 µM
